“Also recorded” adds a separate entry of the source.
Experiments:
PTPH1 = molecular target: T1, PTPH1 (Homo sapiens, UniProt P26045); test: PTPH1 inhibition, pNPP substrate; assay type: biochemical; conditions: pH 7
T1 sequence (P26045 1-913): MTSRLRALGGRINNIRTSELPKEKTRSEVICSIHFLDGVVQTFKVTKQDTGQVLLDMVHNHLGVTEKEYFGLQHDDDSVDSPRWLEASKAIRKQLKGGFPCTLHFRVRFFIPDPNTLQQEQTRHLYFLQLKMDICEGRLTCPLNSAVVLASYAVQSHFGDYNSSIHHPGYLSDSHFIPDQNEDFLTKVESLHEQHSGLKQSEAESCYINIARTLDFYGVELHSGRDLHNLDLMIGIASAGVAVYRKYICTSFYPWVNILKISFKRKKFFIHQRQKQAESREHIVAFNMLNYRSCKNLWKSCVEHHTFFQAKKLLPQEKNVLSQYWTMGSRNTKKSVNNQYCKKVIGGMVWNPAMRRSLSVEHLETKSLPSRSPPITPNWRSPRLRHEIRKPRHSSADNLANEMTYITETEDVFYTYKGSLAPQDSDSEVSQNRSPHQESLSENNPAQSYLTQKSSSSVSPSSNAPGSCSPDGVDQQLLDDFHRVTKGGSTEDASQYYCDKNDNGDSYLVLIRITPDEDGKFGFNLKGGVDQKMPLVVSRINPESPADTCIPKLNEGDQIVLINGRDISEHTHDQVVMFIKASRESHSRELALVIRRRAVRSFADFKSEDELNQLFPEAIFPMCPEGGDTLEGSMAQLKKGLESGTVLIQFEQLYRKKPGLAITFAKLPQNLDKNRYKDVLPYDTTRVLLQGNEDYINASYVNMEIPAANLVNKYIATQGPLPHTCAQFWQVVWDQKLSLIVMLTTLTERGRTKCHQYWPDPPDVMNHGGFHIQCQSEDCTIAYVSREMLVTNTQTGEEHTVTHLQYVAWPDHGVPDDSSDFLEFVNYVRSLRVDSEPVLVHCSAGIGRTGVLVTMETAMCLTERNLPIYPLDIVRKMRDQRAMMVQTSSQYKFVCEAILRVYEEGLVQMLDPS

Mtb-infected macrophages = test: Macrophage assay, growth of M. tuberculosis in IFN-γ activated J774 macrophages; assay type: cell-based, Mycobacterium tuberculosis; conditions: J774A.1 macrophages
Laforin = molecular target: T2, Laforin (Homo sapiens, UniProt O95278); test: Laforin inhibition, pNPP substrate; assay type: biochemical
T2 sequence (O95278 1-331): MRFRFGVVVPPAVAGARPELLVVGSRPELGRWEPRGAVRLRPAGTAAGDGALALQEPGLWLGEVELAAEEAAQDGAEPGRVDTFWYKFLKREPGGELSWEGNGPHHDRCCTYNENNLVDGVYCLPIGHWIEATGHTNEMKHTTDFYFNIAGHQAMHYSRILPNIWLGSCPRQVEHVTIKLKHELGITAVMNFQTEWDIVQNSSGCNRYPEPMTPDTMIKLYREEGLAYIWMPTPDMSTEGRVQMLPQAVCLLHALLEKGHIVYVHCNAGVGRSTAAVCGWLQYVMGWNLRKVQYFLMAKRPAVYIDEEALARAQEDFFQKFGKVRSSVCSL

mPTPB = mPTPB (Mycobacterium tuberculosis, UniProt I6WXK4); test: biochemical
Sequence of mPTPB (I6WXK4 whole entry): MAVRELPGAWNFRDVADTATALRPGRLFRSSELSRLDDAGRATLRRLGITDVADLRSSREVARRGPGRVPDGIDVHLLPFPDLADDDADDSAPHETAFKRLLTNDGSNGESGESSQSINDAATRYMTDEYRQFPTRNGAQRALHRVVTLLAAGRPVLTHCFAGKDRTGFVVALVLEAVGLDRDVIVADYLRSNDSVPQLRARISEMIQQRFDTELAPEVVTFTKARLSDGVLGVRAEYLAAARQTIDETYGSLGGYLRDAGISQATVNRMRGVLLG

LMWPTP = test: Insulin signaling in HepG2 cells; assay type: cell-based, human; conditions: pretreated 1 hour, 5 nM insulin 5 minutes
Procedure: To assess the effects of L335N15 in insulin signaling pathway, HepG2 cells were pretreated with L335N15 for 1 hour and were subsequently stimulated with 5 nM insulin for 5 minutes. […] Consistent with IR activation, downstream Akt phosphorylation (Ser473) was increased. […] Accordingly, LMWPTP inhibitors such as L335N15 described herein can be used to develop agents for the treatment of type 2 diabetes and insulin resistance.

SHP2 [1] = molecular target: SHP2 (Homo sapiens, UniProt Q06124); test: Covalent adduct formation with SHP2, QTOF ESI-MS / LC-MS; conditions: pH 7, cefsulodin 3 hours, PVS 10 minutes
Procedure: Characterization of cefsulodin-mediated SHP2 inhibition by Q-TOF ESI-MS, LC-MS, and HPLC. Agilent 6520 Accurate-Mass was used for the Q-TOF ESI-MS studies. Water and acetonitrile (both containing 0.1% formic acid) were used as eluent (80% water, flow 50 μL/min, run time 5 minutes). ESI positive mode was used with mass range from 300 to 1700, the gas temperature was 325° C., and vaporizer temperature was: […] The sample was adjusted to have a concentration at 0.1 mg/mL, the injection volume of each sample was 1 μL. Mass hunter software was used for protein deconvolution data analysis to calculate the molecular weight of the protein.
Agilent Technologies 6130 quadrupole LC-MS instrument was used for the LC-MS studies. A C18 reserved phase column (phenomenex, 50×4.6 mm) was used as stationary phase, water and methanol (both containing 0.1% formic acid) were used as mobile phase (gradient: 0-100% methanol, flow 0 8 ml/min, run time 15 minutes), and UV absorbance at the fixed wavelength of 254 nm and positive and negative ESI-MS data were recorded. The sample was adjusted to have a concentration at 0.1 mg/mL, and the injection volume of each sample was 0.2 μL. The retention time and corresponding ESI-MS data were used as identity of molecules.

SHP2 [2] = molecular target: T3, SHP2 (Homo sapiens, UniProt Q06124); test: SHP2 inhibition, pNPP substrate; assay type: biochemical
T3 sequence (Q06124 224-528): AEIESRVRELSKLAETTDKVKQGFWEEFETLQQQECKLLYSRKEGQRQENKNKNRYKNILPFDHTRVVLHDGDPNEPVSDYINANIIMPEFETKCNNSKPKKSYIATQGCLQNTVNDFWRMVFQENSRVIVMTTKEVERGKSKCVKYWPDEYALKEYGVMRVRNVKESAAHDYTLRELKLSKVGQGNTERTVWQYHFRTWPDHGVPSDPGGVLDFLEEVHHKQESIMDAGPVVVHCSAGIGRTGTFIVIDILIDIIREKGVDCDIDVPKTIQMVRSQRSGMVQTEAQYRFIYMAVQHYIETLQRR

[3] = system: EGF-mediated ERK1/2 phosphorylation; test: EGF-mediated ERK1/2 phosphorylation, immunoblot, H1975 cells; assay type: cell-based, human; conditions: compound 7 at 40 μM
Procedure: Cell proliferation and immunoblot analysis. Human non-small cell lung carcinoma cell line H1975 was cultured at 37° C. and 5% CO2 in RPMI-1640 (Corning) supplemented with 10% fetal bovine serum (HyClone). Human breast cancer cell line MDA-MB-231 was cultured in DMEM supplemented with 10% fetal bovine serum. For cell proliferation assay, 2˜3×10^3 cells were seeded in each well of 96-well plates. After treating cells with compounds for 2 days, cells were incubated with 50 µg/ml MTT (3-(4,5-Dimethylthiazol-2-yl)-2,5-diphenyltetrazolium bromide) for ˜3-4 hours. Then, the culture medium was removed, DMSO was added to dissolve the formazan crystals. Wells containing only media were used for background correction. The optical density was measured spectrophotometrically at 540 nm. For signaling analysis, cells were serum-starved overnight followed by treatment with vehicle or compounds for 3 hours, and then either left un-stimulated or stimulated with 5 μg/ml EGF or 10 nM PMA (Sigma) for indicated time. Cells were lysed and the lysates were electrophoresed on a 10% polyacrylamide gel, and then transferred to a nitrocellulose membrane, and probed with anti-phospho-ERK1/2 and anti-ERK1/2 (Cell Signaling) antibodies followed by incubation with horseradish peroxidase-conjugated secondary antibodies. […]

PTP1B = PTP1B (Homo sapiens, UniProt P18031); test: PTP1B inhibition, pNPP substrate; assay type: biochemical; conditions: pNPP at Km, pH 7.0, 25° C.
Sequence of PTP1B (P18031 whole entry): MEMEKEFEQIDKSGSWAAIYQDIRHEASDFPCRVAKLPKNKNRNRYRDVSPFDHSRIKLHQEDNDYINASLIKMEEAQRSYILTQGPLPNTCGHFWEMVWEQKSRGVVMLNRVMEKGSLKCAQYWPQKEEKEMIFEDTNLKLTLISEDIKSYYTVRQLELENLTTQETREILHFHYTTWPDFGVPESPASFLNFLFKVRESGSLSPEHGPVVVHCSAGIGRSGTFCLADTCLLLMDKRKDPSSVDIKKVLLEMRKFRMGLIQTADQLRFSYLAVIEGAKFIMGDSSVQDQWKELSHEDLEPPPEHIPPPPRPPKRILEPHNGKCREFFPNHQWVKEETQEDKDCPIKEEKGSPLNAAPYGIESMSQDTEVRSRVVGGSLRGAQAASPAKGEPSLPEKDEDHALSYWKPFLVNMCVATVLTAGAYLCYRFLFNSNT

HePTP = HePTP (Homo sapiens, UniProt P35236); test: HePTP inhibition, pNPP substrate; assay type: biochemical; conditions: pNPP at Km, pH 7.0, 25° C.
Sequence of HePTP (P35236 whole entry): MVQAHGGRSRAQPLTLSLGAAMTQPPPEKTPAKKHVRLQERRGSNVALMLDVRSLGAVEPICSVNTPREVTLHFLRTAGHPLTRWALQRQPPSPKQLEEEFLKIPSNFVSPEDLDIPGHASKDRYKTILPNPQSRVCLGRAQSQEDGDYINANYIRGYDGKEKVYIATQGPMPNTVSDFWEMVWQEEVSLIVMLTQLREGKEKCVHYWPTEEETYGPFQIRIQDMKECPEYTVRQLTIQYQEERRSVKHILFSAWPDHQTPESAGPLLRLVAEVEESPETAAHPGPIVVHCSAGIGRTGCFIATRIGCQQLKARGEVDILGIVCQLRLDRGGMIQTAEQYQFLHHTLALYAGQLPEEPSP

VHR = VHR (Homo sapiens, UniProt P51452); test: VHR inhibition, pNPP substrate; assay type: biochemical; conditions: pNPP at Km, pH 7.0, 25° C.
Sequence of VHR (P51452 whole entry): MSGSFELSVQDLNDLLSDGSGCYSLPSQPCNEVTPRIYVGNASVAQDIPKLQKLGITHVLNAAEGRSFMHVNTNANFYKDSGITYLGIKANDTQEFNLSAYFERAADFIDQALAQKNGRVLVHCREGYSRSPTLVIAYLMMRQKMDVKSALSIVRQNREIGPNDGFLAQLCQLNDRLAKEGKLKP

Ssu72 = molecular target: T4, Ssu72 (Homo sapiens, UniProt Q9NP77); test: Ssu72 inhibition, pNPP substrate; assay type: biochemical; conditions: pH 7
T4 construct: made in house
T4 sequence (Q9NP77 whole entry): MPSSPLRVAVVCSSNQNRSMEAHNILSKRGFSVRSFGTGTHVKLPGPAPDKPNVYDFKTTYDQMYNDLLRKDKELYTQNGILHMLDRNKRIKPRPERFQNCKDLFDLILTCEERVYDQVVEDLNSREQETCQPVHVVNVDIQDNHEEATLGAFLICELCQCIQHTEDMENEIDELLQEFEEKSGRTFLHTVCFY

FAP1 = FAP1 (Homo sapiens, UniProt Q12923); test: FAP1 inhibition, pNPP substrate; assay type: biochemical; conditions: pH 7
TcPTP = TcPTP (Homo sapiens, UniProt P17706); test: TcPTP inhibition, pNPP substrate; assay type: biochemical; conditions: pH 7
Sequence of TcPTP (P17706 whole entry): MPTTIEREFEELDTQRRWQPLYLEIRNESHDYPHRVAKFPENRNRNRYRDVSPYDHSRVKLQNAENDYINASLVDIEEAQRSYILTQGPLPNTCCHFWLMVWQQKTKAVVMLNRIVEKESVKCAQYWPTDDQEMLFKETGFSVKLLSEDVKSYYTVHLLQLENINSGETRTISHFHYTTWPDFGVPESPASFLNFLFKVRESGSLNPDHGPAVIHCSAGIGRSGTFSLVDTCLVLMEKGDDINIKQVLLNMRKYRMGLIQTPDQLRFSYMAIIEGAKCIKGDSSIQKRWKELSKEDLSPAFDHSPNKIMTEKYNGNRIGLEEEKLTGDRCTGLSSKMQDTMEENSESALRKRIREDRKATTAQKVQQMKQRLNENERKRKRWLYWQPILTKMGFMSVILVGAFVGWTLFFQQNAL

LYP = LYP (Homo sapiens, UniProt Q9Y2R2); test: LYP inhibition, pNPP substrate; assay type: biochemical; conditions: pNPP at Km, pH 7.0, 25° C.
Sequence of LYP (Q9Y2R2 whole entry): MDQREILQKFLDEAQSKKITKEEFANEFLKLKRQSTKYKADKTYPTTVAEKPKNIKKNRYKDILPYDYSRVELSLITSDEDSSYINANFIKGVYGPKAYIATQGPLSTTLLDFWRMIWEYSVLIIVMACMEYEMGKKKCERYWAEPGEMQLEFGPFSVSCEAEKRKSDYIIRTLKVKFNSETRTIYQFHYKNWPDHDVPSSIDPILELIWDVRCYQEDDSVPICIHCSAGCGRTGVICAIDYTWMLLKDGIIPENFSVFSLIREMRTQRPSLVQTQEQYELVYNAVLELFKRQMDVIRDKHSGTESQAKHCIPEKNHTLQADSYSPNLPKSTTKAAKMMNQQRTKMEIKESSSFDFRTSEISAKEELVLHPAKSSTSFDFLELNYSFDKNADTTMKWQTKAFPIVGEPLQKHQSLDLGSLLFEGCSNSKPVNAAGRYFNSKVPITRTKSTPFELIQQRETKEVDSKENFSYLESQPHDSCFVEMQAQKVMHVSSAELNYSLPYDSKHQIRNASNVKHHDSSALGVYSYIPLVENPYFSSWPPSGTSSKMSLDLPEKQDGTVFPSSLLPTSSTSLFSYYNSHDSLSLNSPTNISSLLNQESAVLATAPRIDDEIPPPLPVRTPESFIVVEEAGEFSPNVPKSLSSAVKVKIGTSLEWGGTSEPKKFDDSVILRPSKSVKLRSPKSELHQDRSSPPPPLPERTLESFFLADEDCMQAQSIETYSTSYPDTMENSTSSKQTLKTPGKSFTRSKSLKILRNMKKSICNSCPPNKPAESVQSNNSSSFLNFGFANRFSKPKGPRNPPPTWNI

PEST = PEST (Homo sapiens, UniProt Q05209); test: PEST inhibition, pNPP substrate; assay type: biochemical; conditions: pH 7
Sequence of PEST (Q05209 whole entry): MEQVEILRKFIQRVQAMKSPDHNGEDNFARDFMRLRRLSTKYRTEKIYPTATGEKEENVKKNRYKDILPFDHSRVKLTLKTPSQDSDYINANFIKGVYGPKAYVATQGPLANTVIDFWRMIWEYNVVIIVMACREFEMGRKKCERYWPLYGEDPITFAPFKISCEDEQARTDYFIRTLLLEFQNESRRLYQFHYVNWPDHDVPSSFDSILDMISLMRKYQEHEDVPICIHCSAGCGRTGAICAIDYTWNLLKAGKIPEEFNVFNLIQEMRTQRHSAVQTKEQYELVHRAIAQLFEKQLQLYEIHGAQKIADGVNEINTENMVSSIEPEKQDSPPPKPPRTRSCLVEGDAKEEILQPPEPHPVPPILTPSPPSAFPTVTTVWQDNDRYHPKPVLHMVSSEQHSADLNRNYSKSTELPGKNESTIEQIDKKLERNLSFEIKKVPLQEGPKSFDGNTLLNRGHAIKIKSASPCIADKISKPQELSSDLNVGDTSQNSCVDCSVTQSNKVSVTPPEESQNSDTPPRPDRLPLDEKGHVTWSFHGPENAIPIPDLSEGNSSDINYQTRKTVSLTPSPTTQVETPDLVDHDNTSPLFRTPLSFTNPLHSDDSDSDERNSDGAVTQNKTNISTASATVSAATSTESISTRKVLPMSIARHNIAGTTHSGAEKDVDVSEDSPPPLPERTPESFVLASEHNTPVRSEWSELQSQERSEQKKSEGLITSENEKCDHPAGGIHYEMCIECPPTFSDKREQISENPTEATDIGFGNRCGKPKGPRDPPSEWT

M. tuberculosis H37Rv = test: Microplate Alamar Blue assay (MABA) MIC, H37Rv; assay type: cell-based, Mycobacterium tuberculosis
mPTPA = mPTPA (Mycobacterium tuberculosis, UniProt P9WIA1); assay type: biochemical
Sequence of mPTPA (P9WIA1 whole entry, looked up): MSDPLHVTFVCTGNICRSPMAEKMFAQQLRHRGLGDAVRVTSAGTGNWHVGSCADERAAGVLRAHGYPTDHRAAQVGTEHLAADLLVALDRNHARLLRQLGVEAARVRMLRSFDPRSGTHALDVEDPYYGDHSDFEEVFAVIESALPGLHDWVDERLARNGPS

Work on `O=C(Nc1nc2ccccc2s1)C(c1ccccc1)S(=O)(=O)O` (stereo not drawn) [Compound L319N15] yielded an IC50 (PTPH1) greater than 200 µM.

For `O=C(O)c1cc2c(C#Cc3cccc(C(F)(F)F)c3)c(-c3ccccc3)oc2cc1O` [Compound L01Z08], the “anti-Mtb activity in Mtb-infected macrophages” value (Mtb-infected macrophages) was “potent anti-Mtb activity”.

For `O=C(Nc1ccc2nc(C(F)(F)F)[nH]c2c1)C(c1ccccc1)S(=O)(=O)O` (stereo not drawn) [Compound L319M54], the IC50 (PTPH1) was greater than 200 µM.

With `O=C(Nc1nnc(-c2ccccc2)s1)C(c1ccccc1)S(=O)(=O)O` (stereo not drawn) [Compound L319M73-2] the “specificity for Laforin over LMPTP” value (Laforin; ratio of IC50) was 8 fold.

With `O=C(C(c1ccccc1)S(=O)(=O)O)N1CCC(c2ccc(Cl)c(Cl)c2)CC1` (stereo not drawn) [Compound L319N47] the “increase in potency against mPTPB compared to SPAA” value (mPTPB) was 2000 fold.

For `O=C(CS(=O)(=O)O)Nc1nc2ccccc2s1` [Compound L335N15], the “Akt phosphorylation (Ser473) in HepG2 cells” value (LMWPTP) was “increased” and the “IR Tyr1162/1163 phosphorylation in HepG2 cells” value (LMWPTP; relative to DMSO) was “enhanced IR Tyr1162/1163 phosphorylation in a dose-dependent fashion”.

In the case of `C=CS(=O)(=O)c1ccccc1` [phenyl vinyl sulfone], the “covalent adduct formation with SHP2” value (SHP2 [1]) is reported as “formed a covalent adduct”.

Work on `NC(=O)C(c1ccccc1)S(=O)(=O)O` (stereo not drawn) [SPAA, α-sulfophenylacetic amide, reference compound] yielded an IC50 (mPTPB) of 200 µM.

For `O=C(Nc1ccccc1)C(=O)Nc1ccc(NC(=O)C(c2ccccc2)S(=O)(=O)O)cc1` (stereo not drawn) [Compound 7, 2-oxo-2-((4-(2-oxo-2-(phenylamino)acetamido)phenyl)amino)-1-phenylethanesulfonic acid], the “inhibitory activity against SHP2 at 50 μM” value (SHP2 [2]; 50 μM) was “no inhibition” and the “EGF-mediated ERK1/2 phosphorylation in H1975 cells” value [3] was “no appreciable effect; also recorded: failed to block EGF-mediated ERK1/2 phosphorylation”.

`O=C(Nc1ccc(-n2ccnc2)cc1)C(c1ccccc1)S(=O)(=O)O` (stereo not drawn) [Compound L319M63] showed an IC50 (PTP1B) greater than 100 µM, an IC50 (HePTP) greater than 100 µM and an IC50 (VHR) greater than 100 µM. For the same compound, the IC50 (Ssu72) was greater than 100 µM, the IC50 (SHP2 [2]; pNPP at Km, pH 7.0, 25° C.) was greater than 100 µM and the IC50 (FAP1) was greater than 100 µM. For the same compound, the IC50 (TcPTP) was greater than 100 µM, the IC50 (LYP) was greater than 100 µM and the IC50 (PEST) was greater than 100 µM.

For `O=C(CS(=O)(=O)O)Nc1nc2ccc([N+](=O)[O-])cc2s1` [Compound L335N15-07], the “inhibition against Laforin at 100 μM” value (Laforin) was “no detectable inhibition”.

In the case of `Cc1c(Br)cc(NC(=O)CS(=O)(=O)O)cc1Br`, the “anti-Mtb activity in Mtb-infected macrophages” value (Mtb-infected macrophages) is reported as “markedly decrease bacterial load” and the “activity in standard MIC assays” value (M. tuberculosis H37Rv) is reported as “devoid of activity”.

For `O=C(Nc1ccc(N2CCOCC2)cc1)C(c1ccccc1)S(=O)(=O)O` (stereo not drawn) [Compound L319M68], the IC50 (PTPH1) was greater than 200 µM and the “mode of mPTPA inhibition” value (mPTPA) was “competitive inhibitor”.

With `O=C(Nc1cnc2ccccc2c1)C(c1ccccc1)S(=O)(=O)O` (stereo not drawn) [Compound L319M88] the IC50 (PTPH1) was greater than 200 µM.

In the case of `O=C(Nc1nc2ccc(O[N+](=O)[O-])cc2s1)C(c1ccccc1)S(=O)(=O)O` (stereo not drawn) [Compound L319N15-07], the “inhibition against Laforin at 100 μM” value (Laforin) is reported as “no detectable inhibition”.

Source: US10532977B2, “Small molecule inhibitors of protein tyrosine phosphatases and uses thereof” (Indiana University Research and Technology Corporation, priority 2015, dated 2020)
